This note sets out measurements from patent US8637013B2, “Treatment of drug-related side effect and tissue damage by targeting the CD24-HMGB1-Siglec10 axis” (The Regents of The University of Michigan, priority 2009, dated 2014).

No end group written: not given here.

The test system of test [1] is sialidase activity in the sera of sepsis mice. The test can be described thus: Serum sialidase activity of CLP mice (Amplex Red Neuraminidase assay kit). The conditions noted are these: sera from CLP mice mixed with inhibitors prior to the assay. The test is classed as biochemical, mouse.
Test [2] has as its target T1, CD24-Siglec 10 interaction (Homo sapiens, UniProt Q96LC7).
T1 construct: Recombinant protein consisting of human IgG Fc and extracellular domains of Siglec 10; purchased R&D Systems
T1 sequence (Q96LC7 17-550 limits assumed): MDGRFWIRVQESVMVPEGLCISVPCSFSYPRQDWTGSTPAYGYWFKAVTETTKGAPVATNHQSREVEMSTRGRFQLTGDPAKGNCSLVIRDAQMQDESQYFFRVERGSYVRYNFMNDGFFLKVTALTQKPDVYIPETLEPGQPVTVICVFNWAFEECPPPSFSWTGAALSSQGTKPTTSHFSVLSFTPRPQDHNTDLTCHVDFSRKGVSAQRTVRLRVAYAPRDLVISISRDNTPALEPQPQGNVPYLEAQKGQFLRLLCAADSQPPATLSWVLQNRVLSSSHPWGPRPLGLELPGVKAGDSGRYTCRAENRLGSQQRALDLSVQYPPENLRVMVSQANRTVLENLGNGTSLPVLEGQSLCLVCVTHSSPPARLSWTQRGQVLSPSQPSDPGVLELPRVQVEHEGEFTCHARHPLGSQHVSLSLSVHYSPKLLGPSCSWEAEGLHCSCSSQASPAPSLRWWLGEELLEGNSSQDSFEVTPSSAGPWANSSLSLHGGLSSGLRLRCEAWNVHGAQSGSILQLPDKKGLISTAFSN
Description: Inhibition of CD24-Siglec 10 interaction by sialosides (microplate binding assay). Particulars: for Inhibition of CD24-Siglec 10 interaction: Siglec 10Fc preincubated with sialoside, then added to plate-bound CD24Fc.

Test [3] concerns AAP-induced liver damage in WT B6 mice. Description: AAP-induced liver damage in WT mice treated with CD24Fc. Particulars: AAP 16 mg/mouse, 5 hours after AAP, vs control IgG Fc. Type of test: in vivo.
For test [4], the target named is T2, HMGB1 (Homo sapiens, UniProt P09429).
T2 construct: the full-length HMGB-1 expression vector was transfected into TSA cells; FLAG; made in house; host or cells: TSA cells (purified protein)
T2 sequence (P09429 1-215): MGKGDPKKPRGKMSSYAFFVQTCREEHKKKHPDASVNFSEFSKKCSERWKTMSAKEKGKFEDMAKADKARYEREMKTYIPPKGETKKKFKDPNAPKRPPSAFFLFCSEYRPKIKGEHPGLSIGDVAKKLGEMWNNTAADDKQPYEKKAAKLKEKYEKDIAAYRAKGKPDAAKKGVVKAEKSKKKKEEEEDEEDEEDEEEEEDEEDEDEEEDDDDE
The test can be described thus: Co-immunoprecipitation of HMGB1 with CD24-Fc. The test is classed as binding. Particulars: vs control IgG-Fc; cation-dependent.

In test [5] the test system is HMGB1. Description: Co-immunoprecipitation of HMGB1 with CD24-Fc. The test is classed as binding, human. Particulars: FLAG-tagged constructs in COS7 cell lysates.

`CC(=O)N[C@@H]1C(O)C=C(C(=O)O)OC1[C@H](O)[C@H](O)CO` (stereo partly drawn) [Compound 1, 2,3-dehydro-2-deoxy-N-acetylneuraminic acid]: the “Inhibition of sialidase activity in the serum of sepsis mice” value in test [1] was “minimal effect”.
`O=C(CO)N[C@H]1[C@H]([C@H](O)[C@H](O)CO)OC(C(=O)O)=C[C@@H]1O` [Neu5Gc2en, 2,3-dehydro-2-deoxy-N-glycolylneuraminic acid]: the “Inhibition of sialidase activity in the serum of sepsis mice” value in test [1] is “partial inhibition”.
As for `CC(=O)N[C@H]1[C@H]([C@H](O)[C@H](O)CO)O[C@@](O[C@H]2[C@@H](O)[C@@H](CO)O[C@@H](O[C@H]3[C@H](O)[C@@H](O)C(O)O[C@@H]3CO)[C@@H]2O)(C(=O)O)C[C@@H]1O` (stereo partly drawn) [Neu5Acα2-3Lac], in test [2], the “Inhibition of CD24-Siglec 10 interaction” value is “efficient inhibition”.
In the case of “CD24Fc: fusion protein that binds to HMGB1 and Siglec 10 (SETTTGTSSNSSQSTSNSGLAPNPTNATTK; not fully specified (C-terminus); also: fused to dimerising Fc (not given here))”, in test [3], the “Inflammatory cytokines in serum (IL-6, IL-10, MCP-1, IFN-γ, TNF-α)” value was “massive reduction”. Further, the “Coimmunoprecipitation of recombinant HMGB-1” value in the test with HMGB1 [4] was “specifically coimmunoprecipitated”. Further, in the test on HMGB1 [5], the “Immunoprecipitation of box A-containing HMGB1 mutant” value is listed as “not the box A-containing mutant”; the “Immunoprecipitation of full length HMGB1 and box B-containing mutant” value is “immunoprecipitated”.
With `CC(=O)N[C@H]1[C@H]([C@H](O)[C@H](O)CO)O[C@@](OC[C@H]2O[C@@H](O[C@H]3[C@H](O)[C@@H](O)C(O)O[C@@H]3CO)[C@H](O)[C@@H](O)[C@H]2O)(C(=O)O)C[C@@H]1O` (stereo partly drawn) [Neu5Acα2-6Lac], the “Relative potency in inhibiting CD24-Siglec 10 interaction” value in test [2] (2-6 versus 2-3 linked sialoside) is recorded as “more potent”. Further, the “Inhibition of CD24-Siglec 10 interaction” value in test [2] is “efficient inhibition”.
